# Activity calls are given as the source filed them.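 How the source made its calls: active means IC50 under 100 times the reference toxin's IC50 in the same rat muscle cell viability test; inactive means the rest.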
# Tested on: L-6 rat myoblast viability, Alamar blue, 72 h
# Assay: host muscle cell viability loss – plate reader, dry powder, counter-screen for T. cruzi inhibitor project, dose response (AID 651895)
smiles,measurement,value
C[C@@H]1CN([C@@H](C)CO)C(=O)c2cccc(NC(=O)c3ccncc3)c2O[C@H]1CN(C)Cc1ccc(Oc2ccccc2)cc1,IC50,14.8 µM (inactive)
